29 molecules from ChEMBL document CHEMBL1255199, “Endochin optimization: structure-activity and structure-property relationship studies of 3-substituted 2-methyl-4(1H)-quinolones with antimalarial activity” (J Med Chem, 2010) can be followed below.

The structures appear in SMILES notation. Values after ≈ are worked out from the molar mass of the structure shown.

The subject of data set [1] is Plasmodium falciparum. Put plainly: Antimalarial activity against chloroquine, mefloquine, pyrimethamine and atovaquone-resistant Plasmodium falciparum TM90-C2B infected in human A+ erythrocytes after 72 hrs by SYBR Green I assay. It counts as functional, organism-based.
In data set [2] the test system is Plasmodium falciparum. Put plainly: Antimalarial activity against chloroquine and pyrimethamine-resistant Plasmodium falciparum W2 infected in human A+ erythrocytes after 72 hrs by SYBR Green I assay. It counts as functional, organism-based. To be noted: W2, 72 h.
A further data set concerns J774. Kind of data set: Cytotoxicity against mouse J774 cells. It counts as cell-based.
Data set [3] in a line: Lipophilicity, log D of the compound at pH 7.4. The conditions noted are these: buffer.
Data set [4] in a line: Passive transcellular permeability of the compound at pH 7.4 by PAMPA. It counts as ADME. To be noted: for Papp: read-out: permeability.
Data set [5] in a line: Passive transcellular permeability of the compound at pH 4 by PAMPA. It counts as ADME. The conditions noted are these: for Papp: read-out: permeability. (The PAMPA barrier holds no transporters, so it reflects passive diffusion.)
Another data set can be described thus: in vitro. The conditions noted are these: mouse, J774 cells.
A short description of another data set: physchem. To be noted: aqueous, pH 7.4.

Description for in vitro: Cytotoxicity index, ratio of EC50 for mice (Mus musculus) J774 cells to EC50 for chloroquine, mefloquine, pyrimethamine and atovaquone-resistant Plasmodium falciparum TM90-C2B
Description for physchem: Aqueous solubility of the compound at pH 7.4 by HPLC analysis

Consider `Cc1c(-c2ccccc2)c(=O)c2cc(Cl)ccc2n1C`, for which the EC50 with Plasmodium falciparum [1] and with Plasmodium falciparum [2] was greater than 8800 nM in each case.

Regarding `COc1c(-c2ccccc2)c(C)nc2ccc(Cl)cc12`, the EC50 in the data set on Plasmodium falciparum [1] and in the data set with Plasmodium falciparum [2] was greater than 8800 nM in each case.

On to `COc1cc2[nH]c(C)c(CC(C)C)c(=O)c2cc1Cl`, for which the EC50 is 63.3 nM with Plasmodium falciparum [1], 86.4 nM with Plasmodium falciparum [2] and greater than 35.7 µM with J774. In addition, in data set [3], the logD was found to be 2.99. Also, the Papp is 368 ×10⁻⁶ cm/s in data set [4] and 496 ×10⁻⁶ cm/s in data set [5].

`Cc1nc2ccccc2c(OCc2ccccc2)c1Br` came in with a logD in data set [3] of 2.52. In addition, the results for the Papp in data set [4] and in data set [5] were 794 ×10⁻⁶ cm/s and 99.7 ×10⁻⁶ cm/s, respectively.

With `COc1cc2[nH]c(C)c(Br)c(=O)c2cc1Cl`, the logD in data set [3] stood at 0. The Papp in data set [4] turned out to be 152 ×10⁻⁶ cm/s; in data set [5], 125 ×10⁻⁶ cm/s.

On to `COc1ccc2c(=O)cc(C)[nH]c2c1`, for which the EC50 with Plasmodium falciparum [1] was 12500 nM; in the data set with Plasmodium falciparum [2], greater than 13200 nM; in the data set on J774, greater than 52.8 µM. Besides, the logD in data set [3] was 1.2. For the same molecule, the Papp in data set [4] worked out at 8.91 ×10⁻⁶ cm/s. The selectivity ratio in “in vitro” was greater than 4.2.

For `Cc1cc(=O)c2ccccc2[nH]1`, the EC50 in the data set with Plasmodium falciparum [1] was greater than 62800 nM; in the data set with Plasmodium falciparum [2], greater than 44700 nM; with J774, greater than 62.8 µM. Moreover, the values for the Papp in data set [4] and in data set [5] were 1.54 ×10⁻⁶ cm/s and 1.56 ×10⁻⁶ cm/s, respectively.

On to `Cc1[nH]c2ccccc2c(=O)c1/C=C/c1ccccc1`, for which the EC50 with Plasmodium falciparum [1] was greater than 9080 nM; in the data set with Plasmodium falciparum [2] it was greater than 9080 nM; in the data set with J774 it was greater than 36.3 µM. In data set [3], this molecule returned a logD of 4.4. Moreover, the results for the Papp in data set [4] and in data set [5] were 224 ×10⁻⁶ cm/s and 222 ×10⁻⁶ cm/s, respectively. In addition, the selectivity ratio in “in vitro” is greater than 4.

Turning to `Cc1[nH]c2ccc(F)cc2c(=O)c1Br`, the EC50 in the data set on Plasmodium falciparum [1] was 125 nM; with Plasmodium falciparum [2] it was 929 nM; in the data set with J774 it was greater than 39.1 µM. In addition, the logD in data set [3] was 1.61. In addition, the Papp was determined as 18.3 ×10⁻⁶ cm/s in data set [4] and 16.2 ×10⁻⁶ cm/s in data set [5]. In addition, the selectivity ratio in the data set “in vitro” is greater than 313.

Turning to `CCCCC#Cc1c(C)[nH]c2ccc(OC)cc2c1=O`, the EC50 with Plasmodium falciparum [1] is greater than 9210 nM; in the data set with Plasmodium falciparum [2], greater than 9210 nM; in the data set with J774, greater than 36.8 µM. In data set [3], this molecule showed a logD of 5.25. The permeability in data set [4] is reported as 2438.2 ×10⁻⁶ cm/s; in data set [5], 1020.6 ×10⁻⁶ cm/s. Moreover, in the data set “in vitro”, the selectivity ratio is greater than 4.

For the molecule `CCCCC#Cc1c(C)[nH]c2ccccc2c1=O`, the EC50 is greater than 10400 nM in the data set with Plasmodium falciparum [1], 8290 nM in the data set with Plasmodium falciparum [2] and 8.9 µM in the data set on J774. In addition, the logD in data set [3] stood at 5.44. In addition, in data set [4], the permeability is on record as 2137.05 ×10⁻⁶ cm/s. The Papp in data set [5] stood at 500 ×10⁻⁶ cm/s.

Regarding `COc1ccc2[nH]c(C)c(-c3ccccc3)c(=O)c2c1`, the values for the EC50 in the data set on Plasmodium falciparum [1], with Plasmodium falciparum [2] and with J774 were greater than 9420 nM, greater than 9420 nM and greater than 37.7 µM, respectively. The same molecule yielded a logD in data set [3] of 1.61. Further, in data set [4], the Papp turned out to be 126 ×10⁻⁶ cm/s. The selectivity ratio in “in vitro” was greater than 4.

In the case of `COc1ccc2c(=O)c(-c3ccccc3)c(C)[nH]c2c1`, the EC50 is 269 nM with Plasmodium falciparum [1], 287 nM in the data set with Plasmodium falciparum [2] and greater than 37.7 µM in the data set on J774. In data set [3], this molecule gave a logD of 1.56. For the same molecule, the Papp in data set [4] was 9.89 ×10⁻⁶ cm/s. In addition, the selectivity ratio in the data set “in vitro” is greater than 140.

As to `COc1cccc2c(=O)c(-c3ccccc3)c(C)[nH]c12`, the EC50 with Plasmodium falciparum [1] is 1660 nM; in the data set on Plasmodium falciparum [2], 2060 nM; in the data set with J774, greater than 37.7 µM. Besides, in data set [3], the logD was 1.73. The Papp was found to be 37 ×10⁻⁶ cm/s in data set [4] and 33.9 ×10⁻⁶ cm/s in data set [5]. The selectivity ratio in “in vitro” was greater than 22.6.

Regarding `Cc1[nH]c2c(Cl)c(Cl)ccc2c(=O)c1-c1ccccc1`, the results for the EC50 with Plasmodium falciparum [1], in the data set with Plasmodium falciparum [2] and in the data set with J774 were greater than 8220 nM, greater than 8220 nM and greater than 32.9 µM, respectively. This molecule also returned a logD in data set [3] of 3.27. The values for the Papp in data set [4] and in data set [5] were 197 ×10⁻⁶ cm/s and 189 ×10⁻⁶ cm/s, respectively.

`CCCCCCC/C=C/c1c(C)[nH]c2ccccc2c1=O` came in with an EC50 in the data set on Plasmodium falciparum [2] of 12.9 nM. Also, in data set [3], the logD came to 4.26. In data set [5], the Papp worked out at 174 ×10⁻⁶ cm/s. The molecule further yielded a solubility in “physchem” of less than 2 µM.

As for `C=C(CCCCCCC)c1c(C)[nH]c2ccccc2c1=O`, the response with Plasmodium falciparum [2] was half-maximal at 39.6 nM (EC50). In addition, the logD in data set [3] amounted to 2.35. For the same molecule, the permeability in data set [5] was found to be 1755.67 ×10⁻⁶ cm/s. For the same molecule, the solubility in the data set “physchem” was less than 2 µM.

Consider `CCCCCC/C=C\Cc1c(C)[nH]c2ccccc2c1=O`, for which the EC50 in the data set on Plasmodium falciparum [2] is 102 nM. In addition, in data set [3], the logD worked out at 5.94. This molecule also registered a solubility in the data set “physchem” of less than 2 µM.

On to `COc1ccc2c(c1)c(=O)c(Cc1ccccc1)c(C)n2C`, for which the EC50 in the data set with Plasmodium falciparum [1] is 8060 nM; in the data set on Plasmodium falciparum [2], greater than 8520 nM. In data set [3], this molecule yielded a logD of 2.73. For the same molecule, the Papp in data set [4] came to 268 ×10⁻⁶ cm/s; in data set [5] it was 295 ×10⁻⁶ cm/s. The molecule also returned a solubility in “physchem” of 10 µM (≈ 2.93 µg/mL).

`Cc1c(Cc2ccccc2)c(=O)c2cc(Cl)ccc2n1C`: the EC50 in the data set on Plasmodium falciparum [1] and with Plasmodium falciparum [2] was greater than 8400 nM throughout. The logD in data set [3] amounted to 3.21. Moreover, the figures for the Papp in data set [4] and in data set [5] were 489 ×10⁻⁶ cm/s and 510 ×10⁻⁶ cm/s, respectively. The molecule further registered a solubility in the data set “physchem” of 2 µM (≈ 0.596 µg/mL).

Regarding `COc1ccc2c(=O)c(Cc3ccccc3)c(C)n(C)c2c1`, the results for the EC50 in the data set on Plasmodium falciparum [1] and in the data set with Plasmodium falciparum [2] were 7840 nM and greater than 8520 nM, respectively. The same molecule had a logD in data set [3] of 3.24. Also, the Papp was found to be 299 ×10⁻⁶ cm/s in data set [4] and 432 ×10⁻⁶ cm/s in data set [5]. For the same molecule, the solubility in the data set “physchem” was greater than 20 µM.

Take `COc1ccc2nc(C)c(Cc3ccccc3)c(OC)c2c1`: the concentration giving a half-maximal response (EC50) in the data set on Plasmodium falciparum [1] and with Plasmodium falciparum [2] was greater than 8520 nM in each case. In addition, the logD in data set [3] turned out to be 4.2. In data set [4], this molecule registered a permeability of 1067.76 ×10⁻⁶ cm/s. Moreover, the Papp in data set [5] was determined as 294 ×10⁻⁶ cm/s. The solubility in “physchem” is 2 µM (≈ 0.587 µg/mL).

With `COc1cc2[nH]c(C)c(Cc3ccccc3)c(=O)c2cc1Cl`, the values for the EC50 in the data set with Plasmodium falciparum [1], in the data set on Plasmodium falciparum [2] and in the data set on J774 were 68.6 nM, 93.7 nM and greater than 31.9 µM, respectively. This molecule displayed a logD in data set [3] of 1.99. For the same molecule, the figures for the Papp in data set [4] and in data set [5] were 566 ×10⁻⁶ cm/s and 575 ×10⁻⁶ cm/s, respectively.

With `CCCCC/C=C/c1c(C)[nH]c2cc(OC)c(Cl)cc2c1=O`, the figures for the EC50 with Plasmodium falciparum [1], in the data set on Plasmodium falciparum [2] and in the data set with J774 were 10.6 nM, 31.5 nM and greater than 31.2 µM, respectively. This molecule registered a logD in data set [3] of 3.57. The Papp in data set [4] was determined as 46.3 ×10⁻⁶ cm/s; in data set [5] it was 280 ×10⁻⁶ cm/s. For the same molecule, the selectivity ratio in “in vitro” was greater than 2950.

As to `Cc1ccc2[nH]c(C)c(Br)c(=O)c2c1`, the EC50 in the data set with Plasmodium falciparum [1] is 261 nM; with Plasmodium falciparum [2], 288 nM; in the data set with J774, 19.6 µM. Also, the logD in data set [3] came to 1.07. The Papp is 42.2 ×10⁻⁶ cm/s in data set [4] and 26.4 ×10⁻⁶ cm/s in data set [5]. Further, the selectivity ratio in “in vitro” is 74.9.

With `CCCCCCCc1c(C)nc2ccccc2c1O`, the figures for the EC50 in the data set on Plasmodium falciparum [1], in the data set on Plasmodium falciparum [2] and in the data set with J774 were 105 nM, 93.2 nM and 5.1 µM, respectively. In addition, the logD in data set [3] is 3.39. For the same molecule, in the data set “in vitro”, the selectivity ratio was 48.3.

Turning to `CCCCCCCCCc1c(C)[nH]c2ccccc2c1=O`, the EC50 with Plasmodium falciparum [1] is 39.8 nM; in the data set on Plasmodium falciparum [2] it was 24.1 nM; in the data set on J774, 2.8 µM. This molecule also came in with a logD in data set [3] of 4.33. For the same molecule, the selectivity ratio in the data set “in vitro” turned out to be 69.9.

Turning to `O=C1C(O)=C([C@H]2CC[C@H](c3ccc(Cl)cc3)CC2)C(=O)c2ccccc21` [ATOVAQUONE], the EC50 came out at 6230 nM in the data set with Plasmodium falciparum [1] and 0.54 nM in the data set with Plasmodium falciparum [2].

With `CCN(CC)CCCC(C)Nc1ccnc2cc(Cl)ccc12` (stereo not drawn) [CHLOROQUINE], the results for the EC50 in the data set with Plasmodium falciparum [1] and in the data set with Plasmodium falciparum [2] were 48.2 nM and 164 nM, respectively.

As usually defined, the EC50 is the concentration that produces a half-maximal response. One may read the logD as the decadic logarithm of the distribution of all forms, ionised or not, between an organic phase and buffer at a given pH. A low value points to lower lipophilicity. In general, solubility refers to how much of the substance goes into solution per volume. Low readings indicate little dissolved substance, high ones much dissolved substance.
